Values of other authors, collected in patent US20030224036A1, “Hla class I a2 tumor associated antigen peptides and vaccine compositions” (priority 1999, published 2003).

Tested on: PBMC of cervical cancer patients

## aKXVAAWTLKAAa-NH2 [PADRE, a=D-alanine, X=cyclohexylalanine]
95% interval 10-65%
  responding patients: 33%
Recurrent or residual cervical carcinoma
  safety in patients: favorable safety profile
